Results taken from PubChem BioAssay AID248 (DTP/NCI, 2004).
Where “and” joins values, the source holds several entries; their conditions need not be identical. Identical values can stand only once. Toxic doses and inconclusive results are not listed. No stated cut-off is given here; in the data, active means T/C of 150% or more; inactive means T/C below 125%.

System: L1210 leukemia ip in BDF1 mice, survival T/C
Experiment: NCI In Vivo Anticancer Drug Screen. Data for tumor model L1210 Leukemia (intraperitoneal) in B6D2F1 (BDF1) mice
Settings: higher = longer survival
Method in brief: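 Mice bearing the transplanted tumor received compound or vehicle. Survival of the treated group was divided by that of the vehicle-treated control group to give the ratio.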

Measured: T/C

COc1cccc2c1C(=O)c1c(O)c3c(c(O)c1C2=O)C[C@@](O)(C(=O)CO)C[C@@H]3OC1CC(N)C(O)C(C)O1 (stereo not given in full)
inactive: endpoint: mean survival time, dose: 0.09 mg/kg/injection, schedule: Q01DX009 (ip), vehicle: saline 106 % of control | endpoint: mean survival time, dose: 0.18 mg/kg/injection, schedule: Q01DX009 (ip), vehicle: saline 107 % of control and 113 % of control | endpoint: mean survival time, dose: 0.2 mg/kg/injection, schedule: Q01DX009 (ip), vehicle: water 112 % of control | endpoint: mean survival time, dose: 0.28 mg/kg/injection, schedule: Q04DX002 (ip), vehicle: saline 110 % of control and 120 % of control | endpoint: mean survival time, dose: 0.3 mg/kg/injection, schedule: Q01DX015 (ip), vehicle: clinical formulation 116 % of control | endpoint: mean survival time, dose: 0.44 mg/kg/injection, schedule: Q01DX015 (ip), vehicle: clinical formulation 119 % of control | endpoint: mean survival time, dose: 0.5 mg/kg/injection, schedule: Q01DX003 (ip), vehicle: water 115 % of control | endpoint: mean survival time, dose: 0.5 mg/kg/injection, schedule: Q## X Z (ip), vehicle: water 113 % of control | endpoint: mean survival time, dose: 0.55 mg/kg/injection, schedule: Q04DX002 (ip), vehicle: saline 103 % of control and 108 % of control | endpoint: mean survival time, dose: 1.0 mg/kg/injection, schedule: Q01DX009 (sc), vehicle: clinical formulation 107 % of control | endpoint: mean survival time, dose: 1.0 mg/kg/injection, schedule: Q03HX024 (ip), vehicle: water 111 % of control | endpoint: mean survival time, dose: 1.0 mg/kg/injection, schedule: Q04DX004 (ip), vehicle: clinical formulation 117 % of control | endpoint: mean survival time, dose: 1.5 mg/kg/injection, schedule: Q01DX009 (sc), vehicle: clinical formulation 108 % of control | endpoint: mean survival time, dose: 2.0 mg/kg/injection, schedule: Q03HX024 (ip), vehicle: water 93 % of control | endpoint: mean survival time, dose: 2.2 mg/kg/injection, schedule: Q01DX009 (sc), vehicle: clinical formulation 113 % of control | endpoint: mean survival time, dose: 3.0 mg/kg/injection, schedule: Q01DX009 (ip), vehicle: saline 107 % of control | endpoint: mean survival time, dose: 3.3 mg/kg/injection, schedule: Q01DX009 (sc), vehicle: clinical formulation 117 % of control | endpoint: mean survival time, dose: 4.0 mg/kg/injection, schedule: Q01DX008 (ip), vehicle: saline 98 % of control | endpoint: mean survival time, dose: 4.9 mg/kg/injection, schedule: Q01DX009 (sc), vehicle: clinical formulation 110 % of control | endpoint: mean survival time, dose: 5.0 mg/kg/injection, schedule: Q01DX009 (ip), vehicle: saline 93 % of control | endpoint: mean survival time, dose: 20.0 mg/kg/injection, schedule: Q01DX001 (ip), vehicle: saline 108 % of control | endpoint: mean survival time, dose: 100.0 micrograms/kg/injection, schedule: Q03HX032 (ip), vehicle: clinical formulation 117 % of control | endpoint: mean survival time, dose: 150.0 micrograms/kg/injection, schedule: Q03HX032 (ip), vehicle: clinical formulation 120 % of control | endpoint: median survival time, dose: 0.12 mg/kg/injection, schedule: Q03HX008 (ip), vehicle: water 120 % of control | endpoint: median survival time, dose: 0.13 mg/kg/injection, schedule: Q03HX008 (ip), vehicle: water 119 % of control | endpoint: median survival time, dose: 0.23 mg/kg/injection, schedule: Q04DX003 (ip), vehicle: water 113 % of control | endpoint: median survival time, dose: 0.25 mg/kg/injection, schedule: Q01DX009 (ip), vehicle: water 115 % of control | endpoint: median survival time, dose: 0.28 mg/kg/injection, schedule: Q03HX008 (ip), vehicle: water 111 % of control | endpoint: median survival time, dose: 0.47 mg/kg/injection, schedule: Q03HX008 (ip), vehicle: water 111 % of control | endpoint: median survival time, dose: 0.5 mg/kg/injection, schedule: Q01DX001 (ip), vehicle: water 113 % of control and 116 % of control | endpoint: median survival time, dose: 0.5 mg/kg/injection, schedule: Q01DX009 (ip), vehicle: water 115 % of control and 119 % of control | endpoint: median survival time, dose: 0.5 mg/kg/injection, schedule: Q03HX024 (ip), vehicle: water 114 % of control | endpoint: median survival time, dose: 0.65 mg/kg/injection, schedule: Q01DX005 (sc), vehicle: water 110 % of control | endpoint: median survival time, dose: 0.65 mg/kg/injection, schedule: Q01DX009 (ip), vehicle: water 104 % of control | endpoint: median survival time, dose: 0.65 mg/kg/injection, schedule: Q03HX008 (sc), vehicle: water 110 % of control | endpoint: median survival time, dose: 0.75 mg/kg/injection, schedule: Q04DX003 (ip), vehicle: water 109 % of control | endpoint: median survival time, dose: 0.78 mg/kg/injection, schedule: Q03HX008 (ip), vehicle: water 105 % of control | endpoint: median survival time, dose: 1.0 mg/kg/injection, schedule: Q01DX009 (ip), vehicle: water 115 % of control | endpoint: median survival time, dose: 1.0 mg/kg/injection, schedule: Q03HX024 (ip), vehicle: water 93 % of control and 110 % of control | endpoint: median survival time, dose: 1.0 mg/kg/injection, schedule: Q04DX003 (ip), vehicle: water 119 % of control | endpoint: median survival time, dose: 1.0 mg/kg/injection, schedule: Q## X001 (ip), vehicle: saline 113 % of control | endpoint: median survival time, dose: 1.08 mg/kg/injection, schedule: Q01DX005 (sc), vehicle: water 105 % of control | endpoint: median survival time, dose: 1.08 mg/kg/injection, schedule: Q01DX009 (ip), vehicle: water 104 % of control and 113 % of control | endpoint: median survival time, dose: 1.17 mg/kg/injection, schedule: Q04DX003 (ip), vehicle: water 100 % of control | endpoint: median survival time, dose: 1.25 mg/kg/injection, schedule: Q04DX003 (ip), vehicle: water 115 % of control | endpoint: median survival time, dose: 1.5 mg/kg/injection, schedule: Q04DX003 (ip), vehicle: water 102 % of control | endpoint: median survival time, dose: 1.75 mg/kg/injection, schedule: Q04DX003 (ip), vehicle: water 100 % of control | endpoint: median survival time, dose: 1.8 mg/kg/injection, schedule: Q01DX001 (ip), vehicle: water 95 % of control and 113 % of control and 120 % of control | endpoint: median survival time, dose: 1.8 mg/kg/injection, schedule: Q01DX005 (sc), vehicle: water 110 % of control | endpoint: median survival time, dose: 1.8 mg/kg/injection, schedule: Q01DX009 (ip), vehicle: water 109 % of control and 113 % of control | endpoint: median survival time, dose: 1.8 mg/kg/injection, schedule: Q08DX002 (ip), vehicle: water 100 % of control and 118 % of control | endpoint: median survival time, dose: 2.0 mg/kg/injection, schedule: Q01DX009 (ip), vehicle: water 104 % of control | endpoint: median survival time, dose: 2.0 mg/kg/injection, schedule: Q## X001 (ip), vehicle: saline 118 % of control | endpoint: median survival time, dose: 2.6 mg/kg/injection, schedule: Q04DX003 (ip), vehicle: water 116 % of control | endpoint: median survival time, dose: 3.0 mg/kg/injection, schedule: Q01DX009 (ip), vehicle: water 109 % of control | endpoint: median survival time, dose: 3.0 mg/kg/injection, schedule: Q08DX002 (ip), vehicle: water 100 % of control and 118 % of control | endpoint: median survival time, dose: 3.0 mg/kg/injection, schedule: Q12DX002 (ip), vehicle: water 117 % of control | endpoint: median survival time, dose: 3.9 mg/kg/injection, schedule: Q01DX001 (ip), vehicle: water 105 % of control | endpoint: median survival time, dose: 5.0 mg/kg/injection, schedule: Q12DX002 (ip), vehicle: water 119 % of control | endpoint: median survival time, dose: 5.9 mg/kg/injection, schedule: Q04DX003 (ip), vehicle: water 111 % of control | endpoint: median survival time, dose: 6.0 mg/kg/injection, schedule: Q01DX001 (ip), vehicle: water 115 % of control | endpoint: median survival time, dose: 6.0 mg/kg/injection, schedule: Q04DX003 (ip), vehicle: water 103 % of control | endpoint: median survival time, dose: 8.0 mg/kg/injection, schedule: Q04DX003 (ip), vehicle: water 94 % of control and 97 % of control (2×) | endpoint: median survival time, dose: 8.3 mg/kg/injection, schedule: Q04DX003 (ip), vehicle: water 116 % of control | endpoint: median survival time, dose: 8.4 mg/kg/injection, schedule: Q08DX002 (ip), vehicle: water 104 % of control and 118 % of control | endpoint: median survival time, dose: 8.9 mg/kg/injection, schedule: Q04DX003 (ip), vehicle: water 100 % of control | endpoint: median survival time, dose: 10.0 mg/kg/injection, schedule: Q04DX003 (ip), vehicle: water 94 % of control and 100 % of control and 103 % of control | endpoint: median survival time, dose: 10.0 mg/kg/injection, schedule: Q08DX002 (ip), vehicle: water 111 % of control | endpoint: median survival time, dose: 12.0 mg/kg/injection, schedule: Q01DX001 (ip), vehicle: water 120 % of control | endpoint: median survival time, dose: 13.3 mg/kg/injection, schedule: Q01DX001 (ip), vehicle: water 105 % of control | endpoint: median survival time, dose: 14.0 mg/kg/injection, schedule: Q08DX002 (ip), vehicle: water 95 % of control and 104 % of control | endpoint: median survival time, dose: 24.0 mg/kg/injection, schedule: Q01DX001 (ip), vehicle: water 114 % of control

CC(=O)N(Cc1cccc([N+](=O)[O-])c1)c1ccc(C(=O)O)cc1
inactive: endpoint: mean survival time, dose: 100.0 mg/kg/injection, schedule: Q01DX001 (ip), vehicle: saline with Tween-80 98 % of control | endpoint: mean survival time, dose: 200.0 mg/kg/injection, schedule: Q01DX001 (ip), vehicle: saline with Tween-80 119 % of control | endpoint: mean survival time, dose: 400.0 mg/kg/injection, schedule: Q01DX001 (ip), vehicle: saline with Tween-80 93 % of control
